Where a name gives a salt, the structure may show the parent alone.
Experiments:
[1] = target: T1, p-tau (Homo sapiens, UniProt P10636); assay: p-tau aggregation assay, dose response (ThS fluorescence, inducer-free); type: biochemical; conditions: 6 µM p-tau, ThS fluorescence
T1 construct: made in house; host or cells: E. coli (PIMAX system)
Experimental: Aggregation of 6-µM p-tau under the influence of 30 µM of each of the library compounds or a DMSO vehicle control was monitored in 384-well plates every 10 min for ThS fluorescence changes over 16 h. To assess the quality of the high-throughput p-tau aggregation reactions, we used the T0 and T16hr ThS fluorescence units of no-compound control reactions to calculate the Z′-factor and coefficient of variation (CV), two commonly used criteria for robustness of high-throughput screens (HTS)[62]. A Z′-factor greater than 0.5 and CV smaller than 10% indicate robustness. […] To identify compounds with significant p-tau aggregation modulation, the net change of ThS fluorescence was calculated from all reactions (see Supplemental Table 1 for complete listing).
Aggregation of 6 µM of p-tau was done in the presence of the indicated concentrations of either compound. […] P-tau aggregation reactions with the C291S C322S (C/S) mutant p-tau were done in the presence of the indicated amounts of either compound. Shown are net changes of ThS over 16 h.
Given the tremendous socioeconomical burdens of AD, measures that prevent or delay the onset of the devastating neurodegeneration of AD will be highly impactful. If hyperphosphorylated tau-inflicted neuronal damages are an underpinning for AD and other tauopathies, enhancers of p-tau aggregation (PTAEs) may be risk factors for neurodegeneration. […] Prednicarbate is a synthetic corticosteroid for dermatological use, and carmofur (1-hexylcarbamoyl-5-fluorouracil) is an anti-neoplastic pyrimidine analogue. […] BZDs are among the most widely prescribed medication, in particular to the elderly, for depression and insomnia[70],[71]. We hypothesized that certain BZDs acted as a PTAE to potentiate p-tau aggregation and cytotoxicity. […] We therefore randomly picked nine prescription BZDs for p-tau aggregation assessment (Fig. 6; see Supplemental Fig. 5 for chemical structures). To 6-µM p-tau aggregation reactions, increasing doses of each of these BZDs were added.
Prednicarbate, a synthetic steroid, served as a PTAE control (yellow bars).
The aggregation assays over the course of this project have been done with multi-plate readers from different sources.
A common mix of 6 µM p-tau, 20 mM Tris pH 7.4, 1 mM DTT, and 20 µM ThS was assembled and dispensed to 384-well low-volume plates (10 µl per well) using BioTek EL406 Washer, followed by the addition of 150 nl of the Prestwick Library compounds (final concentration of 30 µM per well) or DMSO in a Beckman Coulter Biomek FX^P workstation. Each plate was covered with an Optical Adhesive Film and incubated at 37 °C for about 10 min. ThS fluorescence was measured every 10 min at 440/490 nm for 16 h by Biotek Synergy Neo Plate Reader. […] The real-time kinetics of ThS signals were collected using Gen5 software.

[2] = test system: C291S C322S (C/S) and C291A C322A (C/A) mutant p-tau; assay: aggregation of C/S or C/A mutant p-tau (ThS net change); type: biochemical; conditions: increasing doses of compound
Experimental: Figure 3 R-(−)-apomorphine and raloxifene are p-tau aggregation inhibitors (PTAIs) that act independently of the redox state of p-tau. (a) and (b) P-tau aggregation inhibition dose response curves of R-(−)-apomorphine and raloxifene. Aggregation of 6 µM of p-tau was done in the presence of the indicated concentrations of either compound. (c) Both R-(−)-apomorphine and raloxifene act independently of the two cysteine residues of p-tau. P-tau aggregation reactions with the C291S C322S (C/S) mutant p-tau were done in the presence of the indicated amounts of either compound. Shown are net changes of ThS over 16 h.
Many “hits” from prior tau-based HTS were non-selective redox modulators, due most likely to the susceptibility of unmodified tau fibrils to the oxidation of two cysteine residues of tau, C291 and C322. Because p-tau aggregation was not affected by changing the two cysteine residues to alanine or serine, we suspected that R-(−)-apomorphine and raloxifene would act independently of these two cysteine. […] By itself, the C/S p-tau gained 130 units of ThS fluorescence over the course of the aggregation reaction (blue column). With increasing doses of either compound, the net gain of ThS fluorescence decreased progressively. […]

[3] = test system: SH-SY5Y cells; assay: cells; conditions: Homo sapiens, SH-SY5Y, read-out: EC50, concentration of compound to reduce p-tau cytotoxicity by 50%, SH-SY5Y, 0.8 µM p-tau
Experimental: (see below). […] PI is excluded by living cells, but diffuses into dead cells where it binds nucleic acid and emits fluorescence. FDA/PI differential staining thus provides a quantitative assessment of cellular viability. The blue curves in Fig. 4a,b depict the cellular viability after treatment with 0–0.8 µM of p-tau.
P-tau (without pre-aggregation) and compounds were added together to cells. Cell viability was quantified by FDA and PI differential staining 24 h later. […] Cellular viability was characterized as above and plotted against the compound concentration. Trend lines in panels (a)–(c) were obtained with the dose response curve fitting function of the software Origin (Origin Pro 8, OriginLab Corporation, Northampton, MA, USA). (d) Representative images of apoptotic cells after treatment of p-tau. SH-SY5Y cells were treated with 0.6 µM of p-tau for 12 h before harvesting for annexin V and PI staining. […] The percentage of apoptotic SH-SY5Y cells was quantified by annexin V and PI double staining of cells receiving 12 h of the indicated treatment under each column in the graph. Error bars are standard deviations; n = 3.
SH-SY5Y cells were treated with 0–0.6 µM of p-tau in conjunction with varying doses of nitrazepam, prazepam or devazepide. […] The red dotted lines indicate 50% viability. Curve fitting was done with the dose–response fitting function of the software Origin (version 8, OriginLab Inc.). The number in parentheses represents the concentration (in µM) of the indicated compound.
(§1) Cell viability assays were tested according to reference[60] with modifications. PTAIs were typically added to cells along with (Fig. 4) or after p-tau was added to cells (Fig. 5). For PTAEs, 10 × concentration of p-tau and the test compounds were assembled for pre-aggregation (without heparin or ThS) for 48 h before adding 10 µl to 100 µl of cells in 96-well plates. Twenty-four or 48 h after the addition of protein/compound, cells were trypsinized and transferred to microcentrifuge tubes, and pelleted at 1000 × g for 5 min at room temperature for FDA, PI, annexin V, and ThS staining. For PI/ThS double staining, cell pellets were resuspended in 20 mM Tris, pH7.4 buffer and incubated with 100 µM ThS for 5 min at room temperature. 5-µg/ml propidium iodide was then added to cell suspension for observation under a microscope.
Supplemental Figure 2. […] SH-SY5Y cells were treated with the indicated concentrations p-tau and compounds (in µM) for 20 hours before FDA/PI differential staining and microscopic quantification. […] 0.2 or 0.4 µM of p-tau and 30 µM of each compound were pre-incubated in aggregation reactions for 24 hours before the 20-hr cell treatment and cytotoxicity quantification. FDA and PI dual staining was performed to measure cellular viability. SH-SY5Y cells Compounds in panel (a) were added to cells along with p-tau without pre-incubation.

[4] = test system: HEK293T cells; assay: intracellular fibril buildup and cell death after p-tau, ThS/PI double staining; type: cell-based; conditions: 15 µM compound added 24 h after p-tau
Experimental: Cells were harvested for ThS/PI staining after additional 24 or 48 h. ThS staining helped visualize intracellular fibrils. In this experiment, we used HEK293T cells to avoid potential interference from the endogenous tau. […] To gain a quantitative assessment, the numbers of the four possible combinations of ThS/PI staining were tallied.
(a) Experimental design. […] These images were from T24hr time point in panel (a) with 0.5 µM p-tau treatment. (c) Quantification of ThS and PI stainability among cells. Cells were categorized based on one of the four ThS/PI double-staining patterns. The total number of cells captured microscopically under each treatment was used as the denominator for the calculation of the proportion of each staining pattern, and expressed in this stacked column chart.
as §1

[5] = parameters: method as in PMID 21071476; conditions: cited from earlier work
[6] = test system: 3xTg mice; conditions: cited from earlier work

T1 sequence (P10636 1-412 isoform P10636-7): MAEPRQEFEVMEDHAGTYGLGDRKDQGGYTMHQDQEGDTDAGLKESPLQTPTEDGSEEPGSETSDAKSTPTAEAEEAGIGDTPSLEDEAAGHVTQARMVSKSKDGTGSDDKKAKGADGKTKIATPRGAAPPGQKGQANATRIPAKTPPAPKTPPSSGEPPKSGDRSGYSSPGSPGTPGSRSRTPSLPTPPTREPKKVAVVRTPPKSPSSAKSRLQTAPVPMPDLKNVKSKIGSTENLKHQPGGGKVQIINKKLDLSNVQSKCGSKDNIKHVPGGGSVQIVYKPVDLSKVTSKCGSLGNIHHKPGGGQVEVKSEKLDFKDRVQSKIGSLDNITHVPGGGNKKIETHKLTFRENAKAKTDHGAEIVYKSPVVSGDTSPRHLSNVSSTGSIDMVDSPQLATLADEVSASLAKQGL

Structure (SMILES): CN1CCc2cccc3c2[C@H]1Cc1ccc(O)c(O)c1-3 [Apomorphine, R-(−)-apomorphine hydrochloride]
- EC50 [1]: 18.1 µM
- aggregation of C/A or C/S mutant p-tau [2]: effectively inhibited
- EC50 [3]: 2.9 µM
- live cells with cytoplasmic ThS fluorescence ([4]; 48-h samples): 26%
- PI (+) ThS (+) cells ([4]; harvested after additional 24 h): 61%
- PI (+) ThS (+) cells ([4]; harvested after additional 48 h): 44%
- blood brain barrier passage [5]: can pass the blood brain barrier
- memory in 3xTg mice [6]: memory improvement

Source: publication PMC7539012, “Hyperphosphorylated tau aggregation and cytotoxicity modulators screen identified prescription drugs linked to Alzheimer's disease and cognitive functions” (Scientific Reports, 2020)
